Results as given in patent publication US20230373934A1, “ANDROGEN RECEPTOR MODULATORS AND METHODS FOR THEIR USE” (ESSA Pharma, Inc., priority 2022, published 2023).

Biological target: T1, androgen receptor (AR) (Homo sapiens, UniProt P10275, T878A)
T1 construct: endogenous in cells; host or cells: LNCaP
T1 sequence (P10275 1-920 T878A): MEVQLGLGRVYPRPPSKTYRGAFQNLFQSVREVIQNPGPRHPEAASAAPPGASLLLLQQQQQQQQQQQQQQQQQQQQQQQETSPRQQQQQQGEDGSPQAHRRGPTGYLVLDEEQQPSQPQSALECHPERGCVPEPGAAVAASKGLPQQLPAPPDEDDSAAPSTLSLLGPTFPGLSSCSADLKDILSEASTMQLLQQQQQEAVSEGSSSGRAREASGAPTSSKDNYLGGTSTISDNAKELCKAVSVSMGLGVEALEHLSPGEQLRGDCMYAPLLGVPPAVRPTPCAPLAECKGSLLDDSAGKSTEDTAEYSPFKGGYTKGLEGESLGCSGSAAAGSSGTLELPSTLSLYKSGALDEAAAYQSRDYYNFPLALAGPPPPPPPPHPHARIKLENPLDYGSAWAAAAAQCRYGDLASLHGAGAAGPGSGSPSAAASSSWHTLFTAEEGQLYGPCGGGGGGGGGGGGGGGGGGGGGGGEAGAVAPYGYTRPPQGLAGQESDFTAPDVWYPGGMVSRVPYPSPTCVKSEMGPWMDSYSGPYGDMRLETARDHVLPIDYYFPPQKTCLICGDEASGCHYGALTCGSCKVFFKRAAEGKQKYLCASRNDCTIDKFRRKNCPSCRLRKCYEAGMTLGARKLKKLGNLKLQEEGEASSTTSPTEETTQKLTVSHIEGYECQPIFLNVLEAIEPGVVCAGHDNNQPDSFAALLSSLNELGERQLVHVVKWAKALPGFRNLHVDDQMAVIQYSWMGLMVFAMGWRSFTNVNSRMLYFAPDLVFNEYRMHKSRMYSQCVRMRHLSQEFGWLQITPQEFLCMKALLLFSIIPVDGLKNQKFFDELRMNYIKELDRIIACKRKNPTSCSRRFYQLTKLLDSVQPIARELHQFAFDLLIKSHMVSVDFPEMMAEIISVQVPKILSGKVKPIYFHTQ
Test: Androgen-induced PSA-luciferase assay, Luciferase Assay A (LNCaP transiently transfected with PSA (6.1 kb)-luciferase reporter)
Type: cell-based
Details: LNCaP cells, 1 h pretreatment, R1881 (1 nM) 24 h, read-out: PSA-Luc IC50 Range
Experimental: The PSA (6.1 kb)-luciferase reporter contains functional AREs (androgen response elements) to which AR binds in response to androgen to induce luciferase activity. LNCaP cells were transiently transfected with the PSA (6.1 kb)-luciferase reporter for 24 h, and then pretreated with vehicle (DMSO) or indicated concentration of representative compounds for one hour prior to the addition of synthetic androgen, R1881 (1 nM). After 24 h of incubation with R1881, the cells were harvested, and relative luciferase activities were determined (FIG. 1). To determine the IC50, treatments were normalized to vehicle control activity induced by R1881 (Table 2).
Luciferase Assay A: Cells were lysed using Passive Lysis Buffer (Promega) and then collected into V-bottom 96-well tissue culture plates. Lysates were centrifuged at 4° C. for 5 minutes at 3000 rpm. To measure luminescence of LNCaP cell lysates the Firefly Luciferase Assay System (Promega) was employed, according to manufacturer's protocol. Relative luminescence units (RLU) in cell lysates were detected for 10 seconds using Promega GloMax-Multi Detection Luminometer (Promega). Values were normalized to protein content. GraphPad Prism graphing software was used to calculate IC50 values. Luciferase Assay A was run for all compounds in Table 2 unless otherwise noted below.
Statistical analyses were performed using GraphPad Prism (Version 6.01 for Windows; La Jolla, CA, USA). Comparisons between treatment and control groups were compared using Two-Way ANOVA with post-hoc Dunnett's and Tukey's tests. Differences were considered statistically significant at P values less than 0.05.

Row | Compound | IC50
1 | CC(C)(c1ccc(-c2cnc(CNS(C)(=O)=O)cn2)cc1)c1cc(Cl)c(OCCCl)c(C#N)c1 [Compound A2] | 500 to 2000 nM
2 | CC(C)(c1ccc(-c2ccc(CNS(C)(=O)=O)cn2)cc1)c1cc(Cl)c(OCCCl)c(C#N)c1 [Compound A3] | 500 to 2000 nM
3 | CC(C)(c1ccc(-c2cnc(CNS(C)(=O)=O)nc2)cc1)c1cc(Cl)c(OCCCl)c(C#N)c1 [Compound A4] | 500 to 2000 nM
4 | CC(C)(c1ccc(-c2ncc(CNS(C)(=O)=O)cn2)cc1)c1cc(Cl)c(OCCCl)c(C#N)c1 [Compound A5] | 500 to 2000 nM
5 | CC(C)(c1ccc(-c2ccc(CCNS(C)(=O)=O)nc2)cc1)c1cc(Cl)c(OCCCl)c(C#N)c1 [Compound A6] | < 500 nM
6 | CS(=O)(=O)NC1CN(CCc2ccc(Oc3cc(Cl)c(OCCCl)c(C#N)c3)cc2)C1 [Compound A7] | > 2000 nM
7 | CC(C)(c1ccc(CN2CCC(NS(C)(=O)=O)CC2)cc1)c1cc(Cl)c(OCCCl)c(C#N)c1 [Compound A8] | > 2000 nM
8 | CS(=O)(=O)NC1CCN(Cc2ccc(Oc3cc(Cl)c(OCCCl)c(C#N)c3)cc2)CC1 [Compound A9] | > 2000 nM
9 | CC(C)(c1ccc(-c2ccc3c(c2)COC32CN(S(C)(=O)=O)C2)cc1)c1cc(Cl)c(OCCCl)c(C#N)c1 [Compound A10] | 500 to 2000 nM
10 | CC(C)(c1ccc(N2CCN(CCNS(C)(=O)=O)CC2)cc1)c1cc(Cl)c(OCCCl)c(C#N)c1 [Compound A13] | > 2000 nM
11 | CC(C)(c1ccc(N2CCOC(CNS(C)(=O)=O)C2)cc1)c1cc(Cl)c(OCCCl)c(C#N)c1 (stereo not shown) [Compound A14] | 500 to 2000 nM
12 | CC(C)(c1ccc(CCN2CC(NS(C)(=O)=O)C2)cc1)c1cc(Cl)c(OCCCl)c(C#N)c1 [Compound A20] | > 2000 nM
13 | CS(=O)(=O)NCc1ccc(-c2ccc(Oc3cc(Cl)c(OCCCl)c(C#N)c3)cc2)cn1 [Compound A21] | 500 to 2000 nM
14 | CS(=O)(=O)Nc1cnc2cc(-c3ccc(Oc4cc(Cl)c(OCCCl)c(C#N)c4)cn3)ccc2n1 [Compound A23] | > 2000 nM
15 | CC(C)(c1ccc(OC[C@]2(C)C[C@@H](NS(C)(=O)=O)C2)cc1)c1cc(Cl)c(OCCCl)c(C#N)c1 [Compound A25] | > 2000 nM
16 | CC(C)(c1ccc(OC[C@]2(F)C[C@H](NS(C)(=O)=O)C2)cc1)c1cc(Cl)c(OCCCl)c(C#N)c1 [Compound A26] | > 2000 nM
17 | CS(=O)(=O)Nc1cnc2cc(-c3ccc(Nc4cc(Cl)c(OCCCl)c(C#N)c4)cc3)ccc2n1 [Compound A27] | > 2000 nM
18 | CC(C)(c1ccc(CCN2CCC(NS(C)(=O)=O)CC2)cc1)c1cc(Cl)c(OCCCl)c(C#N)c1 [Compound A29] | > 2000 nM
19 | CS(=O)(=O)NC1CCN(CCc2ccc(Oc3cc(Cl)c(OCCCl)c(C#N)c3)cc2)CC1 [Compound A30] | > 2000 nM
20 | CC(C)(c1ccc(N2CCOC(CCNS(C)(=O)=O)C2)cc1)c1cc(Cl)c(OCCCl)c(C#N)c1 (stereo not shown) [Compound A31] | > 2000 nM
21 | CC(C)(c1ccc(N2CCOC3(CCN(S(C)(=O)=O)CC3)C2)cc1)c1cc(Cl)c(OCCCl)c(C#N)c1 [Compound A32] | < 500 nM
22 | CC(C)(c1ccc(O[C@H]2CC[C@H](NS(C)(=O)=O)CC2)cc1)c1cc(Cl)c(OCCCl)c(C#N)c1 [Compound A33] | > 2000 nM
23 | CC(C)(c1ccc(CN2CCC(NS(C)(=O)=O)C(F)(F)C2)cc1)c1cc(Cl)c(OCCCl)c(C#N)c1 (stereo not shown) [Compound A34] | > 2000 nM
24 | CS(=O)(=O)NC1CCN(Cc2ccc(Oc3cc(Cl)c(OCCCl)c(C#N)c3)cc2)CC1(F)F (stereo not shown) [Compound A35] | > 2000 nM
25 | CS(=O)(=O)NC1CN(c2ccc(-c3ccc(Oc4cc(Cl)c(OCCCl)c(C#N)c4)cc3)cn2)C1 [Compound A38] | 500 to 2000 nM
26 | CC(C)(c1ccc(OC[C@]2(F)C[C@@H](NS(C)(=O)=O)C2)cc1)c1cc(Cl)c(OCCCl)c(C#N)c1 [Compound A39] | 500 to 2000 nM

Row | Compound | IC50
27 | CC(C)(c1ccc(-c2ccnc(N3CC(NS(C)(=O)=O)C3)n2)cc1)c1cc(Cl)c(OCCCl)c(C#N)c1 [Compound A40] | > 2000 nM
28 | CC(C)(c1ccc(-c2cncc(N3CC(NS(C)(=O)=O)C3)n2)cc1)c1cc(Cl)c(OCCCl)c(C#N)c1 [Compound A41] | > 2000 nM
29 | CC(C)(c1ccc(OCc2ccnc(NS(C)(=O)=O)n2)cc1)c1cc(Cl)c(OC(F)F)c(C#N)c1 [Compound A42] | 500 to 2000 nM
30 | CC(C)(c1ccc(-n2cc(N3CC(NS(C)(=O)=O)C3)cn2)cc1)c1cc(Cl)c(OCCCl)c(C#N)c1 [Compound A45] | 500 to 2000 nM
31 | CC(C)(c1ccc(CN2CC(NS(C)(=O)=O)CC(F)(F)C2)cc1)c1cc(Cl)c(OCCCl)c(C#N)c1 (stereo not shown) [Compound A46] | > 2000 nM
32 | CC(C)(c1ccc(N2CCC(N3CC(NS(C)(=O)=O)C3)CC2)cc1)c1cc(Cl)c(OCCCl)c(C#N)c1 [Compound A47] | > 2000 nM
33 | CC(C)(c1ccc(N2CCN(C3CC(NS(C)(=O)=O)C3)CC2)cc1)c1cc(Cl)c(OCCCl)c(C#N)c1 (stereo not shown) [Compound A48] | > 2000 nM
34 | CS(=O)(=O)Nc1cnc2cc(-c3ccc(Oc4cc(Cl)c(OCCCl)c(C#N)c4)cc3)cnc2n1 [Compound A49] | 500 to 2000 nM
35 | CC(C)(c1ccc(-c2cnc(N3CC(NS(C)(=O)=O)C3)c(F)c2)cc1)c1cc(Cl)c(OCCCl)c(C#N)c1 [Compound A50] | < 500 nM
36 | CC(C)(c1ccc(OC[C@]2(C)C[C@H](NS(C)(=O)=O)C2)cc1)c1cc(Cl)c(OCCCl)c(C#N)c1 [Compound A51] | > 2000 nM
37 | CC(C)(c1ccc(OCc2ccnc(NS(C)(=O)=O)n2)cc1)c1cc(Cl)c(OC2CCC2)c(C#N)c1 [Compound A52] | 500 to 2000 nM
38 | CC(C)(c1ccc(-c2ccc(NC3CN(S(C)(=O)=O)C3)nc2)cc1)c1cc(Cl)c(OCCCl)c(C#N)c1 [Compound A53] | < 500 nM
39 | CC(C)(c1ccc(-c2ccc(N3CCC(NS(C)(=O)=O)C3)nc2)cc1)c1cc(Cl)c(OCCCl)c(C#N)c1 (stereo not shown) [Compound A54] | < 500 nM
40 | CC(C)(c1ccc(-c2ccc(N3CC(CNS(C)(=O)=O)C3)nc2)cc1)c1cc(Cl)c(OCCCl)c(C#N)c1 [Compound A55] | < 500 nM
41 | CC(C)(c1ccc(OCc2ccnc(NS(C)(=O)=O)n2)cc1)c1cc(Cl)c(OC2COC2)c(C#N)c1 [Compound A56] | > 2000 nM
42 | CC(C)(c1ccc(-c2ccc(N3CCC(NS(C)(=O)=O)CC3)nc2)cc1)c1cc(Cl)c(OCCCl)c(C#N)c1 [Compound A58] | > 2000 nM
43 | CC(C)(c1ccc(-c2ccc(N3CCCC(NS(C)(=O)=O)C3)nc2)cc1)c1cc(Cl)c(OCCCl)c(C#N)c1 (stereo not shown) [Compound A59] | 500 to 2000 nM
44 | CC(C)(c1ccc(-c2ccc(N3CCN(S(C)(=O)=O)CC3)nc2)cc1)c1cc(Cl)c(OCCCl)c(C#N)c1 [Compound A60] | 500 to 2000 nM
45 | CS(=O)(=O)Nc1nc2ccc(-c3ccc(Oc4cc(Cl)c(OCCCl)c(C#N)c4)cc3)cc2o1 [Compound A61] | 500 to 2000 nM
46 | CC(C)(c1ccc(OCc2ccnc(NS(C)(=O)=O)n2)cc1)c1cc(Cl)c(OC2CC2)c(C#N)c1 [Compound A62] | 500 to 2000 nM
47 | CC(C)(c1ccc(OC[C@H]2CC[C@H](NS(C)(=O)=O)CC2)cc1)c1cc(Cl)c(OCCCl)c(C#N)c1 [Compound A63] | 500 to 2000 nM
48 | CC(C)(c1ccc(OC[C@H]2C[C@H](CNS(C)(=O)=O)C2)cc1)c1cc(Cl)c(OCCCl)c(C#N)c1 [Compound A64] | 500 to 2000 nM
49 | CS(=O)(=O)Nc1nccc2cc(-c3ccc(Oc4cc(Cl)c(OCCCl)c(C#N)c4)cc3)ccc12 [Compound A65] | > 2000 nM
50 | CS(=O)(=O)Nc1nccc2nc(-c3ccc(Oc4cc(Cl)c(OCCCl)c(C#N)c4)cc3)ccc12 [Compound A66] | > 2000 nM
51 | COc1c(Cl)cc(N(CC(F)(F)F)c2ccc(-c3ccc4nc(NS(C)(=O)=O)cnc4c3)cc2)cc1C#N [Compound A67] | 500 to 2000 nM
52 | CS(=O)(=O)NC1CN(c2ncc(-c3ccc(N(CC(F)(F)F)c4cc(Cl)c(OCCCl)c(C#N)c4)cc3)cn2)C1 [Compound A68] | < 500 nM
